Entries after “also recorded” stand apart in the source; their conditions may differ. Ends that are not written are not given here.

In assay [1] the test system is TGF-β-induced dermal fibrosis in mouse skin. Nature of the assay: In vivo TGF-β-induced dermal fibrosis in mouse skin. The method, then: In Vivo Mouse Experiments. CB57BL6/J male mice were purchased from The Jackson Laboratory (Bar Harbor, ME). Human rE (10 μg/ml) or Endostatin peptides (10 μg/ml) in combination with TGF-β (10 ng/ml), or TGF-β alone were injected intradermally on the back of mice in a total volume of 100 μl 1×PBS. Mice were injected in two different skin sites and sacrificed one week post-injection. Skin surrounding the injection site was harvested and fixed in 10% formalin prior to embedding in paraffin.
(§1) Measurement of Skin Dermal Thickness. Six μm sections of paraffin-embedded human and mouse skin tissues were stained with hematoxylin and eosin (H&E). In some experiments, sections were stained with Masson trichrome which identifies collagens. Images were taken on a Nikon Eclipse 800 microscope. The thickness of the dermis was measured in 6 random fields of each section using the image/J® software. Data are shown in arbitrary units.
E4, a peptide representing the carboxy terminus of human endostatin, can attenuate fibrosis triggered by multiple fibrogenic factors. The anti-fibrotic effects of E4 can be detected whether administered concomitantly with or following the fibrogenic trigger. The efficacy of E4 was confirmed in […] pre-clinical models of fibrosis: a) bleomycin-induced dermal fibrosis in vivo in mouse skin, b) TGF-β induced dermal fibrosis in mouse skin, and c) bleomycin-induced pulmonary fibrosis. E4 peptide or a control peptide (E1; representing the amino terminal region of endostatin) were administered at the same time as TGF-β or bleomycin or 3-4 days following TGF-β or bleomycin. Mice were sacrificed one and two weeks after TGF-β-initiation of dermal fibrosis, and two and three weeks after bleomycin-induced pulmonary fibrosis. Two different modes of administration of the E4 peptide were also tested. It was confirmed that intraperitoneal and intratracheal administration was effective. The amount of E4 that was administered was 10 μg/ml in a total volume of 100 μl for skin and IP injections and 50 μl for IT administration.
For these studies, fibrosis was assessed by measurement of dermal thickness on H&E skin sections (skin), assessment of collagen levels by Masson Trichrome staining (skin and lung), and measurement of collagen levels by Sircol assay (lung). Furthermore, to confirm the mechanism by which E4 exerts its anti-fibrotic effects, the production of extra-cellular matrix (ECM) components, the levels of enzymes that promote matrix stabilization and thus accumulation and levels of those that degrade ECM components, and levels of transcription factors downstream of the pro-fibrotic triggers were evaluated. Results were assessed using the unpaired t test and the 3-way ANOVA (for the ID1 data).

Assay [2] has as its system human skin explants. The settings on record: single dose concurrently with TGF-β; cited from earlier work.
The subject of the next assay is ID1. Nature of the assay: Real-time PCR of ID1 mRNA in primary human lung fibroblasts. The format is cell-based. As for the experimental part:
FIG. 15. […] Real-time PCR analysis was performed to determine the ID1 mRNA levels under the indicated conditions.

In assay [3] the test system is human primary lung fibroblasts. The assay can be described thus: Western blot of FN, Col1α1 and α-SMA in primary lung fibroblasts. The format is cell-based. The method, then: Primary Fibroblast Culture. Human primary lung and skin fibroblasts were cultured. The explanted lungs of normal organ donors, patients with SSc or IPF, and clinically involved skin of SSc patients, a morphea patient and healthy donors were used for primary fibroblast culture. Approximately 2-cm pieces of peripheral lung and skin were minced and fibroblasts were cultured in Dulbecco's modified Eagle's medium (DMEM; Mediatech, Herndon, Va.) supplemented with 10% FBS, penicillin, streptomycin, and anti-mycotic agent, as previously described (Feghali et al., Arthritis Rheum 1999; 42:1451-7). All the cells were used between passages 3-6.
Western Blot Analysis. Cellular lysates were obtained from cultured fibroblasts as previously described (Pilewski et al., Am J Pathol 2005; 166:399-407). Briefly, 2.0×10^5 primary fibroblasts were cultured in 35-mm wells in 0.5% FBS-containing medium supplemented with 10 ng/ml of human recombinant TGF-β or PBS as vehicle control for 24 h, […] In some experiments, endostatin peptides were used without TGF-β stimulation. Cellular lysates were analyzed by Western blot. Signals were detected following incubation with horseradish peroxidase-conjugated secondary antibody and chemiluminescence (Perkin Elmer Life Sciences, Inc., Boston, Mass.). The intensity of individual bands with expected molecular sizes was semi-quantitatively analyzed using the image/J® software available at on the Internet (/rsb.info.nih.gov/ij/index.html), and normalized to individual GAPDH intensity.
(In general: In western blotting, separated proteins are transferred to a membrane and probed.)

Assay [4] concerns TGF-β-induced dermal fibrosis in mouse skin. Particulars: single dose concurrently with TGF-β; cited from earlier work.
The subject of a further assay is lysyl oxidase (LOX). The settings on record: Yamaguchi et al. 2012; cited from earlier work.
The test system of assay [5] is bleomycin induced dermal fibrosis. The settings on record: s.c.; single dose prophylactically, or multiple dose regimen starting 3 days after bleomycin; cited from earlier work.
A further assay concerns MMP-2. The assay can be described thus: Gelatin zymography of MMP-2 in primary human lung fibroblasts. The format is cell-based. Particulars: for MMP-2 activity: E-4 following TGF-β. The source says:
FIG. 14A-14B. FIG. 14A: E4 reduces fibrosis in vitro by inducing MMP-2 activity in primary human lung fibroblasts, thus resulting in increased degradation of collagen and other matrix proteins. […] Lane 1: Vehicle (DMSO); Lane 2: E-4; Lane 3: TGF-β; Lane 4: TGF-β followed by E4. FIG. 14B: Digital image showing that both total and active MMP-2 levels are increased in cells treated with TGF-β and E-4.

The subject of assay [6] is human skin explants. The assay can be described thus: Ex vivo human skin assay, dermal thickness. The format is cell-based. As for the experimental part: Ex vivo human skin assays. Human abdominal skin was obtained from corrective plastic surgery. As previously described (Yasuoka et al., The Open Rheumatol J 2008; 2:17-22), subcutaneous fat tissue was removed uniformly and skin tissue was cut into 1.5 cm×1.5 cm sections. The following were injected intradermally in a total volume of 100 μl 1×PBS: rE alone (1-10 μg/ml), endostatin peptides alone (10 μg/ml), rE or endostatin peptides (1-20 μg/ml) in combination with TGF-β (10 ng/ml), and TGF-β alone (10 ng/ml). In some experiments, human skin was first injected with TGF-β for 48 h followed by recombinant endostatin (rE) administration in the same injection site as TGF-β. Explants containing complete epidermal and dermal layers were cultured in an air liquid interface with the epidermal and keratin layers side up and exposed to air. The culture medium was replaced every other day. After 1 or 2 weeks, skin tissue corresponding to an area with 8-mm diameter centered around the injection site was harvested using disposable 8-mm ACUPUNCH® (Acuderm, Inc., Lauderdale, FL). Skin tissue was fixed in 10% formalin prior to embedding in paraffin.
as §1

Setting [7] is: IPF fibroblasts, 5, 10 and 20 μg/ml, vs vehicle control.

For the substance “E4: SEQ ID NO: 21, amino acids 133-180 of human endostatin with a C-terminal amide (SYCETWRTEAPSATGQASSLLGGRLLGQSAASCHHAYIVLCIENSFMT-NH2; cysteine pairing not given here)”, the “TGF-β-induced dermal fibrosis (dermal thickness)” value in [1] (10 μg/ml intradermal with TGF-β 10 ng/ml, one week) was “prevented”. Moreover, in assay [1] (TGF-β day 1, peptide IP at day 3, harvested day 7), the “TGF-β induced dermal fibrosis, delayed treatment” value is given as “significant decrease”. In the assay on human skin explants [2], the collagen increase entry is “skin thickness and attenuated”. Further, the skin thickness result in the assay on human skin explants [2] is recorded as “TGF-β, significantly decreased”; in assay [4], “significantly decreased skin”; in [5], “E4 significantly decreased skin”. Moreover, the ID1 levels entry in the assay with ID1 is “increases; also recorded: inducing expression”. Further, the Col1α1 levels result in assay [3] (setting [7]) is reported as “dose-dependently reduced”. Further, in assay [3] (setting [7]), the FN levels result is reported as “modest effect”. In addition, the “FN and Col1α1 levels” value in [3] (fibrotic (IPF) lung fibroblasts, absence of TGF-β stimulation) is “decreased”; in assay [3] (normal human lung fibroblasts, TGF-β 24 h, then 5 μg/ml for 48 h) it was “significantly suppressed”. Further, the “TGF-β-induced α-SMA levels” value in [3] (normal lung fibroblasts) is on record as “decreased”. Also, the “levels of lysyl oxidase (LOX)” value with lysyl oxidase (LOX) is given as “reduces”. The MMP-2 activity result in the assay on MMP-2 was “induction and activation”; in the assay on MMP-2 (listed as E-4), “increased MMP-2 activity”. Also, the “total and active MMP-2 levels” value with MMP-2 (cells treated with TGF-β and E-4) is “increased”. The “TGF-β-induced skin fibrosis, dose response” value with human skin explants [6] (concentrations of 5-20 μg/ml with TGF-β) is given as “clearly ameliorated”. Besides, the “dermal thickness, baseline effect” value in the assay on human skin explants [6] (injected alone, no TGF-β, rE 1, 5, 10 μg/ml, peptides 10 μg/ml) is on record as “tendency towards reduction”. Moreover, the “development of fibrosis as measured by dermal thickness” value in the assay on human skin explants [6] (peptides 10 μg/ml with 10 ng/ml TGF-β, vs TGF-β alone) was “significantly abolished”.

(Values after patent US11912755B2, “Endostatin fragments and variants for use in treating fibrosis” (iBio, Inc., priority 2015, dated 2024).)
